ChEMBL document CHEMBL1150118, “Agonodepsides a and B: two new depsides from a filamentous fungus F7524” (J Nat Prod, 2002)
Active and inactive are the calls of the source. No cut-off for these calls is given here.

Columns and labels:
[1] = target: T1, Enoyl-[acyl-carrier-protein] reductase [NADH] (Mycobacterium tuberculosis) (UniProt P9WGR1); assay: inhibition of Mycobacterium tuberculosis InhA at 100 uM after 20 mins by fluorometric assay
T1 sequence (whole entry): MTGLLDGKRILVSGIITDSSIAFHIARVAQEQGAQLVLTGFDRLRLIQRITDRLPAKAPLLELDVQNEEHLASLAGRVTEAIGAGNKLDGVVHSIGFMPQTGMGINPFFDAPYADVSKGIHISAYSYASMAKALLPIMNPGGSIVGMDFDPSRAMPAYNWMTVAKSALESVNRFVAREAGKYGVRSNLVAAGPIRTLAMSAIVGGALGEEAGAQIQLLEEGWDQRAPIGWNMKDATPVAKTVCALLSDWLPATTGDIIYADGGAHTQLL

[2] = target: T2, Enoyl-[acyl-carrier-protein] reductase [NADH] (Mycobacterium tuberculosis, UniProt P9WGR1); assay: inhibition of Mycobacterium tuberculosis InhA after 20 mins by fluorometric assay
T2 sequence (P9WGR1 whole entry): T1 sequence (whole entry)

| SMILES | Activity [1] | IC50 [2] |
| --- | --- | --- |
| C/C=C(\C)c1cc(O)c(C)c(O)c1C(=O)Oc1cc(/C(C)=C/C)c(C(=O)O)c(O)c1C | inactive | – |
| C/C=C(\C)c1cc(O)c(C)c(OC(=O)c2c(/C(C)=C/C)cc(O)c(C)c2O)c1 [AGONODEPSIDE A] | – | 75 µM |
